Test results: patent US20250197428A1, “INHIBITORS OF KIF18A AND USES THEREOF” (ACCENT THERAPEUTICS, INC., priority 2022, published 2025)

Columns and labels:
OVCAR-3 cells = experiment: In vitro anti-proliferative activity assay in cancer cell line OVCAR-3 (CellTiter-Glo, 4- or 7-day); assay type: cell-based; conditions: Homo sapiens, OVCAR-3, 96 h, 4-day assay; read-out: OVCAR-3 cellular antiproliferation assay IC50
[1] = Caco-2 permeation assay, bidirectional permeability; assay type: in vitro ADME; conditions: human, Caco-2, pH 7.4, 5 μM, Papp(B-A)/Papp(A-B)
In short: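 Bidirectional A→B and B→A transport of 5 μM compound in HBSS (10 mM HEPES, pH 7.4), receiver containing 2% BSA, 2 h at 37 °C on 14-day monolayers. Papp from LC-MS/MS peak areas; efflux ratio Papp(B-A)/Papp(A-B), plus recovery. Lucifer Yellow leakage <1% required for monolayer acceptance.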

[2] = Tolerability (body weight) in 28 day OVCAR-3 xenograft study; assay type: in vivo; conditions: all concentrations dosed, 28 day treatment
[3] = In vivo pharmacokinetic evaluation in mouse; parameters: species or system female balb/c nude mice

Cc1cc(NC(=O)c2ccc(NS(=O)(=O)CCO)cc2N2CC[C@@]3(C(F)F)C[C@H]3C2)nc(N2CCC(F)(F)CC2)n1 (single isomer, unassigned) [Example 29b]
IC50 (OVCAR-3 cells): < 0.1 µM
efflux ratio at 2 h, 5 μM [1]: ≥ 10
Tolerability based on body weight [2]: well tolerated
IV Clearance ([3]; 3 mg/kg IV): 3.3 mL/ming/kg
Vd ([3]; female, balb/c nude, plasma, 3 mg/kg IV, read-out: IV Vss): 0.97 L/kg
Cmax ([3]; female, balb/c nude, plasma, 10 mg/kg PO): 4.7 µg/mL
half-life ([3]; female, balb/c nude, plasma, 10 mg/kg PO, read-out: PO T1/2 (converted)): 3.7 h
